Measured values taken from ChEMBL document CHEMBL1137157, “Synthesis and biological activity of 2-anilino-4-(1H-pyrrol-3-yl) pyrimidine CDK inhibitors” (Bioorg Med Chem Lett, 2004).

Tests used:
Cell line = assay: inhibitory concentration for anti-proliferative activity against A549 and […] human tumor cell lines was determined; assay type: functional, cell-based
[1] = target: Cyclin-dependent kinase 2 (Homo sapiens, UniProt P24941); assay: Inhibition of Cyclin dependent kinase 2
[2] = target: Cyclin-dependent kinase 4 (Homo sapiens, UniProt P11802); assay: Inhibition of Cyclin dependent kinase 4
Cyclin-dependent kinase 4, sequence (P11802 whole entry): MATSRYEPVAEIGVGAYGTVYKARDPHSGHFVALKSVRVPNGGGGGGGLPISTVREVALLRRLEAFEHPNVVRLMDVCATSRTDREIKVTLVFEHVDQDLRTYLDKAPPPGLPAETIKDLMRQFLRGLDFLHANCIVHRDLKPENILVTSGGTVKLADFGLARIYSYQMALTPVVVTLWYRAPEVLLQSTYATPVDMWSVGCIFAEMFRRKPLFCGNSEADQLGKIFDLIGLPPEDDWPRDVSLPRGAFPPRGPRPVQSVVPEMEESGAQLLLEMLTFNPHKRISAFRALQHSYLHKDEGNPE

Structure (SMILES) | Ki [1] [nM] | Ki [2] [nM] | IC50 (Cell line) [nM]
Cc1[nH]c(C#N)c(C)c1-c1ccnc(Nc2cccc([N+](=O)[O-])c2)n1 | – | – | 360
Cc1[nH]c([N+](=O)[O-])c(C)c1-c1ccnc(Nc2ccc(F)cc2)n1 | – | 120 | 3120
Cc1[nH]c(C#N)c(C)c1-c1ccnc(Nc2ccc(O)cc2)n1 | – | – | 1360
Cc1c[nH]c(C)c1-c1ccnc(Nc2cccc([N+](=O)[O-])c2)n1 | – | 4170 | –
Cc1ccc(Nc2nccc(-c3c(C)[nH]c(C#N)c3C)n2)cc1O | – | – | 1170
Cc1ccc(Nc2nccc(-c3c(C)[nH]c(C#N)c3C)n2)cc1[N+](=O)[O-] | – | – | 380

Second part, led by results:

Ki [1] [nM] | Ki [2] [nM] | Structure (SMILES) | IC50 (Cell line) [nM]
30 | – | Cc1[nH]c(C#N)c(C)c1-c1ccnc(Nc2cccc(O)c2)n1 | 1840
360 | – | Cc1[nH]c(Cl)c(C)c1-c1ccnc(Nc2ccc(F)cc2)n1 | 13000
– | 300 | Cc1cc(Nc2nccc(-c3c(C)[nH]c(C#N)c3C)n2)ccc1F | 890
100 | – | Cc1[nH]c(C#N)c(C)c1-c1ccnc(Nc2ccc(F)cc2)n1 | 2440
270 | – | Cc1[nH]c(Br)c(C)c1-c1ccnc(Nc2ccc(F)cc2)n1 | 16000
– | 420 | Cc1[nH]c(C(N)=O)c(C)c1-c1ccnc(Nc2ccc(F)cc2)n1 | 1640
